Results reported in patent US12246036B2, “Composition for use in the prevention and in the treatment of iron deficiency” (PHARMANUTRA S.P.A., priority 2017, dated 2025).

Assays:
[1] = Dilution test of iron compositions in sterile PBS and cell culture medium (dissolution properties); type: physicochemical; settings: for appearance after initial ten-fold dilution: 3 mg/ml of iron, PBS and medium; for appearance after further ten-fold dilution: 300 micrograms/ml of iron
Method: (§1) The iron content of the compounds (with the exception of the vitamin D and the sucrosomial matrix) was 30 mg/ml. A 1:100 dilution was performed for all of the compounds in sterile PBS in order to obtain an iron concentration of 300 micrograms/ml. […] The final iron concentration used in the experiments has been described elsewhere (Barisani et al. “Iron overload and gene expression in HepG2 cells: analysis by differential display” FEBS Letters 2000, 469, 208-212). The compounds (initial dilution of […]) were diluted in an incomplete FBS-free medium (RPMI 1640 for the U937 cells, EMEM for the HepG2 cells) with a dilution factor of 1:6 for a final iron concentration of 50 micrograms/ml. A test was conducted to assess the effect of the compounds on the cell cultures: induced FlepG2 and U937 were seeded a with a cell density of 650,000 cells/ml in 6 wells (final volume 1.5 ml/well). After 24 hours the medium was replaced with a new FBS-free (incomplete) one containing 50 µg/ml of iron and after 24 hours the cells were macroscopically checked (visual inspection using a microscope).
Before the cells were treated with the selected compounds, they were tested to assess their dissolution properties. The compounds were diluted in sterile PBS and in the standard cell culture medium (EMEM).

[2] = tested on: U937 cells; settings: 50 micrograms/ml of iron, 24 hours
Method: as §1

[3] = tested on: hepcidin; assay: Hepcidin produced by LPS-stimulated HepG2 cells in supernatant (ELISA); type: cell-based, human; settings: LPS-stimulated HepG2, 18 hours of treatment; combination compared to vitamin D alone or sucrosomial iron alone (FIG. 2)
Method: The HepG2 cells were seeded in 6 wells at a concentration of 650,000 cells/ml (1.5 ml/well). The plates were incubated for 24 hours at 37° C. and 5% CO2 first. Afterwards, the 24-hour medium was replaced with an incomplete EMEM without FEM, containing 40 ng/ml of LPS. A control well was prepared with an LPS-FBS-free incomplete medium. After 20 hours of incubation at 37° C. and 5% CO2, the medium was replaced with the iron treatment solutions (medium containing 50 µg/ml of iron). In the control well, the medium was replaced by an incomplete FBS-free EMEM medium. Another control well without iron was prepared, replacing a container containing LPS with a fresh incomplete FBS-free medium. After 6, 18 and 24 ore, the hours, the supernatants were collected from the wells, centrifugated for 10 minutes at 1000 g, transferred into a new tube and stored a −20° C. for the analysis of hepcidin and CRP. The cells of each well collected were detached using trypsin and counted using Trypan blue with a Bürker counting chamber.

Row | Molecule | appearance after initial ten-fold dilution [1] | appearance after further ten-fold dilution [1] | appearance of the compounds before dilution in PBS / EMEM ([1]; compounds as supplied (30 mg/ml iron)) | effect on the cytoplasmic volume of the cells [2] | hepcidin level/expression in supernatants of HepG2 cells [3]
1 | O=P([O-])([O-])OP(=O)([O-])[O-].O=P([O-])([O-])OP(=O)([O-])[O-].O=P([O-])([O-])OP(=O)([O-])[O-].[Fe+3].[Fe+3].[Fe+3].[Fe+3] [iron pyrophosphate] | changed the colour (pH) of the medium from red to yellow | no evident colour change | – | – | –
2 | O=S(=O)([O-])[O-].[Fe+2] [iron sulphate] | changed the colour (pH) of the medium from red to yellow | moderate colour change | separated in two phases | loss of volume | –
3 | vitamin D | no problems | – | – | – | higher
